Measurements reported in patent US11603395B2, “Antitumor peptide and use thereof” (TOAGOSEI CO., LTD, priority 2019, dated 2023).
Where two headings read alike, the source gives them in different places. Where no end group is shown, it is not given here.

Columns and labels:
[1] = test system: human melanoma (A2058) cell lines; test: Antitumor index from viability of A2058 cells vs MCF-12F normal cells (Cell Counting Kit-8, WST-8); format: cell-based; details: 48 hours; for Antitumor index: A2058 viability A / MCF-12F viability B, n=6 wells; for Antitumor activity / proliferation of A2058 cells (in words): 6.25-25 μM
Description: Specifically, for example, a test using a conventionally known cell proliferation measurement reagent using a tetrazolium salt is performed so that the antitumor index can be calculated. In a preferable aspect, first, the antitumor composition disclosed here is added to a culture solution containing tumor cells, culture is performed for a predetermined time (for example, 24 hours or longer and 72 hours or shorter), and the viability A (%) of tumor cells is calculated. In addition, the viability B (%) of normal cells cultured under the same conditions is calculated. Then, the antitumor index based on the viabilities of tumor cells and normal cells calculated in this manner can be evaluated according to, for example, the following Formula (1):
Antitumor index based on viabilities of tumor cells and normal cells=A/B (1).
The antitumor activity of the peptides of Samples 1 to 4 synthesized in the above Test Example 1 was evaluated using human-derived cultured tumor cells as targets.
Specifically, currently commercially available human melanoma (A2058) cell lines were used as test tumor cells. In addition, a normal human mammary epithelial cell culture line (MCF-12F) was used for comparison. Here, culture solutions of respective cells are as follows.
A2058 cells and MCF-12F cells were cultured and prepared so that the number of cells per well in a 96-hole (well) plate was about 5×10^3. An amount of the culture medium in this case was 100 μL per well.
Next, the 96-hole (well) plate was placed in a CO2 incubator and pre-incubated under conditions of 37° C. and 5% CO2 for about 1 day (21 hours to 24 hours).
(§1) Then, peptide-containing test culture mediums for each concentration were prepared so that the concentrations of the sample peptides to be evaluated were 6.25 μM, 12.5 μM, and 25 μM and supplied to wells (that is, wells after the pre-incubation) in which 90 μL of cells to be evaluated were cultured in each well. Then, the 96-hole (well) plate was returned to the CO2 incubator and incubated under conditions of 37° C. and 5% CO2 for 48 hours.
Here, the number of test wells (n) at peptide concentrations in peptide addition test groups was set to 6. Therefore, the value of the result shown in the following table is an average value of the results obtained in 6 test wells.
(§2) After the incubation for 48 hours was completed, the culture medium in each well was substituted with 100 μL of a fresh culture medium containing no peptide, and additionally, 10 μL of a cell proliferation measurement reagent “Cell Counting Kit-8” (product, commercially available from Dojindo Laboratories) containing a “water-soluble tetrazolium salt (WST-8)” as a coloring reagent was added to each well. Then, the 96-well plate was returned to the CO2 incubator and incubated under conditions of 37° C., and 5% CO2 for 1.5 hours to 2 hours.
(§3) After the incubation was completed, the cell culture solution to which the reagent was added was collected and the cell viability (%) was calculated according to a colorimetric method in which an absorbance at a wavelength of 450 nm (value corrected by the absorbance at a wavelength of 620 nm: A450-A620) was measured based on the reduction of the tetrazolium salt. Specifically, a measured value (measurement absorbance) of a comparative test group in which the above incubation was performed for 48 hours in a culture medium containing no sample peptide was set as a cell viability of 100%. Then, the viability A (%) of A2058 cells and the viability B (%) of MCF-12F cells were calculated. In addition, an antitumor index was calculated based on the viability of A2058 cells and MCF-12F cells using the above Formula (1), and thus the antitumor activity of the sample peptide with respect to A2058 cells was evaluated.

[2] = test system: A2058 cells (tumor cells); format: cell-based, human; details: 48 hours; for Cell viability (%): human
Description: Then, peptide-containing test culture mediums for each concentration were prepared so that the concentrations of the sample peptides to be evaluated were 6.25 μM, 12.5 μM, and 25 μM and supplied to wells (that is, wells after the pre-incubation) in which 90 μL of cells to be evaluated were cultured in each well. Then, the 96-hole (well) plate was returned to the CO2 incubator and incubated under conditions of 37° C. and 5% CO2 for 48 hours. After the incubation for 48 hours was completed, the culture medium in each well was substituted with 100 μL of a fresh culture medium containing no peptide, and additionally, 10 μL of a cell proliferation measurement reagent “Cell Counting Kit-8” (product, commercially available from Dojindo Laboratories) containing a “water-soluble tetrazolium salt (WST-8)” as a coloring reagent was added to each well. Then, the 96-well plate was returned to the CO2 incubator and incubated under conditions of 37° C., and 5% CO2 for 1.5 hours to 2 hours. After the incubation was completed, the cell culture solution to which the reagent was added was collected and the cell viability (%) was calculated according to a colorimetric method in which an absorbance at a wavelength of 450 nm (value corrected by the absorbance at a wavelength of 620 nm: A450-A620) was measured based on the reduction of the tetrazolium salt. Specifically, a measured value (measurement absorbance) of a comparative test group in which the above incubation was performed for 48 hours in a culture medium containing no sample peptide was set as a cell viability of 100%. Then, the viability A (%) of A2058 cells and the viability B (%) of MCF-12F cells were calculated. In addition, an antitumor index was calculated based on the viability of A2058 cells and MCF-12F cells using the above Formula (1), and thus the antitumor activity of the sample peptide with respect to A2058 cells was evaluated. Using tumor cells as targets, the antitumor activity was evaluated using a synthetic peptide having a sequence completely different from those of Samples 1 to 4. Specifically, the viability (%) of A2058 cells (tumor cells) when Sample 5 was treated was evaluated. Details of the test were as those described in Test Example 2. Here, the viability of A2058 cells cultured in a culture medium containing no Sample 5 for the same time was set as 100%, and the viability (%) of A2058 cells cultured under the treatment of Sample 5 was calculated.

[3] = test system: human kidney cancer cell lines (CAKI2); test: Antitumor index from viability of CAKI2 cells vs MCF-12F normal cells (Cell Counting Kit-8, WST-8); format: cell-based; details: 48 hours; for Proliferation of CAKI2 cells (in words): 6.25-25 μM; for Antitumor index: CAKI2 viability A / MCF-12F viability B
Description: as §1, §2, §3
The antitumor activity of Sample 3 and Sample 4 in the above Test Example 1 was evaluated using different tumor cells as targets.
Specifically, currently commercially available human kidney cancer cell lines (CAKI2) were used as test tumor cells. In addition, the above MCF-12F cells were used for comparison.
a McCoy's 5A culture medium (product, commercially available from Gibco) containing 2 mM of L-glutamine, 3,000 mg/L of glucose, 100 unit/mL of penicillin, 100 μg/mL of streptomycin, and 10% fetal bovine serum (FBS).
Details of the test were as those described in Test Example 2. The antitumor index based on the viabilities of CAKI2 cells and MCF-12F cells calculated using the above Formula (1) is shown in Table 3.

[4] = test system: human melanoma cell line (SK-MEL5); test: Antitumor index from viability of SK-MEL5 cells vs MCF-12F normal cells (Cell Counting Kit-8, WST-8); format: cell-based; details: 6.25 μM, 48 hours

Row | Substance | Antitumor index ([1]; peptide 6.25 μM) | Antitumor index ([1]; peptide 12.5 μM) | Antitumor index ([1]; peptide 25 μM) | Antitumor activity (in words) ([2]; A2058 cells, 6.25-25 μM) | Cell viability (%) ([2]; 6.25 μM) | Cell viability (%) ([2]; 12.5 μM) | Cell viability (%) ([2]; 25 μM) | Antitumor activity / proliferation of A2058 cells (in words) [1] | Proliferation of CAKI2 cells (in words) [3] | Antitumor index ([3]; peptide 6.25 μM) | Antitumor index ([3]; peptide 12.5 μM) | Antitumor index ([3]; peptide 25 μM) | Proliferation of SK-MEL5 cells (in words) [4]
1 | VAQVILALIAFICIETIMACSKKRTLRKNDRKKR (VAQVILALIAFICIETIMACSKKRTLRKNDRKKR-NH2; cysteine pairing not given here) [Sample 1] | 1.17 | 0.71 | 0.74 | – | – | – | – | – | – | – | – | – | –
2 | YFFEFVSCSAFVVTGVLLIMFKKRTLRKNDRKKR [Sample 2] | 0.79 | 0.61 | 0.52 | – | – | – | – | – | – | – | – | – | –
3 | MGSNLSPQLCLMPFILGLLSGGVTTKKRTLRKNDRKKR-NH2 [Sample 5] | – | – | – | no antitumor activity | 110.7% | 109.9% | 113.6% | – | – | – | – | – | –
4 | IAAVIFGFLATAAYAVNTFLAKKRTLRKNDRKKR (IAAVIFGFLATAAYAVNTFLAKKRTLRKNDRKKR-NH2) [Sample 4] | 0.84 | 0.65 | 0.12 | – | – | – | – | stronger antitumor activity | significantly reduced proliferation | 1.41 | 0.83 | 0.22 | –
5 | LVNTGLSAFLFFIASIVLAALKKRTLRKNDRKKR (LVNTGLSAFLFFIASIVLAALKKRTLRKNDRKKR-NH2) [Sample 3] | – | – | – | – | – | – | – | stronger antitumor activity | significantly reduced proliferation | 0.77 | 0.1 | – | significantly reduced proliferation
